{
  "source": "paper PMC6364417",
  "about": "“Kinase inhibitor library screening identifies synergistic drug combinations effective in sensitive and resistant melanoma cells” (Journal of Experimental & Clinical Cancer Research : CR, 2019)",
  "assay_in_all_cases": "Kinase inhibitor library screening, PrestoBlue cell viability, 1 or 10 μM, 72 h",
  "key": {"A375 cells (parental)": {"system": "A375 cells (parental)", "settings": "A375 Parental, 72 h"}, "[1]": {"system": "501Mel-XP cells (Vemurafenib-resistant)", "settings": "501Mel XP, 72 h"}, "[2]": {"system": "A375-GP cells (Dabrafenib-resistant)", "settings": "A375 GP, 72 h"}, "[3]": {"system": "IGR37-XP cells (Vemurafenib-resistant)", "settings": "IGR37 XP, 72 h"}, "[4]": {"system": "A375-XP cells (Vemurafenib-resistant)", "settings": "A375 XP, 72 h"}, "IGR37 cells (parental)": {"system": "IGR37 cells (parental)", "settings": "IGR37 Parental, 72 h"}, "[5]": {"system": "501Mel-GP cells (Dabrafenib-resistant)", "settings": "501Mel GP, 72 h"}, "501Mel cells (parental)": {"system": "501Mel cells (parental)", "settings": "501Mel Parental, 72 h", "summary_of_the_method": "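PrestoBlue viability readout after 72 h exposure to each inhibitor at 1 or 10 μM, reported relative to untreated cells as % viability. Lines tested: sensitive parental plus derivatives resistant to Vemurafenib (XP) or Dabrafenib (GP), each run at least in duplicate.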"}, "[6]": {"system": "IGR37-GP cells (Dabrafenib-resistant)", "settings": "IGR37 GP, 72 h"}},
  "data": [
    {"compound": "COc1cccc2cc(-c3nc([C@H]4CC[C@H](C(=O)O)CC4)n4ncnc(N)c34)[nH]c12", "note": "[OSI-027]", "values": [
      {"measurement": "Cell viability in kinase inhibitor library screening, A375 Parental, 10μΜ", "setting": "A375 cells (parental); 10μΜ", "value": 24.3},
      {"measurement": "Cell viability in kinase inhibitor library screening, A375 Parental, 1μΜ", "setting": "A375 cells (parental); 1μΜ", "value": 72.3},
      {"measurement": "Cell viability in kinase inhibitor library screening, 501Mel XP, 1μΜ", "setting": "[1]; 1μΜ, in %", "value": 55.5},
      {"measurement": "Cell viability in kinase inhibitor library screening, 501Mel XP, 10μΜ", "setting": "[1]; 10μΜ, in %", "value": 6.8},
      {"measurement": "Cell viability in kinase inhibitor library screening, A375 GP, 1μΜ", "setting": "[2]; 1μΜ", "value": 62.5},
      {"measurement": "Cell viability in kinase inhibitor library screening, A375 GP, 10μΜ", "setting": "[2]; 10μΜ", "value": 21.4},
      {"measurement": "Cell viability in kinase inhibitor library screening, IGR37 XP, 1μΜ", "setting": "[3]; 1μΜ, in %", "value": 72.2},
      {"measurement": "Cell viability in kinase inhibitor library screening, A375 XP, 1μΜ", "setting": "[4]; 1μΜ", "value": 55.5},
      {"measurement": "Cell viability in kinase inhibitor library screening, A375 XP, 10μΜ", "setting": "[4]; 10μΜ", "value": 19.1},
      {"measurement": "Cell viability in kinase inhibitor library screening, IGR37 Parental, 1μΜ", "setting": "IGR37 cells (parental); 1μΜ, in %", "value": 84.3},
      {"measurement": "Cell viability in kinase inhibitor library screening, IGR37 Parental, 10μΜ", "setting": "IGR37 cells (parental); 10μΜ, in %", "value": 46.6},
      {"measurement": "Cell viability in kinase inhibitor library screening, 501Mel GP, 1μΜ", "setting": "[5]; 1μΜ, in %", "value": 59.2},
      {"measurement": "Cell viability in kinase inhibitor library screening, 501Mel GP, 10μΜ", "setting": "[5]; 10μΜ, in %", "value": 13.9},
      {"measurement": "Cell viability in kinase inhibitor library screening, 501Mel Parental, 1μΜ", "setting": "501Mel cells (parental); 1μΜ, in %", "value": 74.7},
      {"measurement": "Cell viability in kinase inhibitor library screening, 501Mel Parental, 10μΜ", "setting": "501Mel cells (parental); 10μΜ, in %", "value": 14.4},
      {"measurement": "Cell viability in kinase inhibitor library screening, IGR37 GP, 10μΜ", "setting": "[6]; 10μΜ", "value": 40, "unit": "%"},
      {"measurement": "Cell viability in kinase inhibitor library screening, IGR37 GP, 1μΜ", "setting": "[6]; 1μΜ, in %", "value": 81.3}
    ]},
    {"compound": "C#Cc1cccc(Nc2ncnc3cc(OCCOC)c(OCCO)cc23)c1", "note": "[OSI-420 (Desmethyl Erlotinib)]", "values": [
      {"measurement": "cell viability, A375 Parental, 10μΜ", "setting": "A375 cells (parental); 10μΜ, in %", "value": 54.9},
      {"measurement": "cell viability, 501Mel XP, 1μΜ", "setting": "[1]; 1μΜ, in %", "value": 117.2},
      {"measurement": "cell viability, 501Mel XP, 10μΜ", "setting": "[1]; 10μΜ, in %", "value": 44.4},
      {"measurement": "cell viability, A375 GP, 1μΜ", "setting": "[2]; 1μΜ, in %", "value": 96.7},
      {"measurement": "cell viability, A375 GP, 10μΜ", "setting": "[2]; 10μΜ, in %", "value": 88.2},
      {"measurement": "cell viability, IGR37 XP, 10μΜ", "setting": "[3]; 10μΜ", "value": 45.3, "unit": "%"},
      {"measurement": "cell viability, IGR37 XP, 1μΜ", "setting": "[3]; 1μΜ, in %", "value": 83.7},
      {"measurement": "cell viability, A375 XP, 10μΜ", "setting": "[4]; 10μΜ, in %", "value": 79.2},
      {"measurement": "cell viability, IGR37 Parental, 1μΜ", "setting": "IGR37 cells (parental); 1μΜ, in %", "value": 108.5},
      {"measurement": "cell viability, IGR37 Parental, 10μΜ", "setting": "IGR37 cells (parental); 10μΜ, in %", "value": 104.1},
      {"measurement": "cell viability, 501Mel GP, 1μΜ", "setting": "[5]; 1μΜ, in %", "value": 106.0},
      {"measurement": "cell viability, 501Mel GP, 10μΜ", "setting": "[5]; 10μΜ, in %", "value": 79.2},
      {"measurement": "cell viability, 501Mel Parental, 1μΜ", "setting": "501Mel cells (parental); 1μΜ, in %", "value": 109.3},
      {"measurement": "cell viability, 501Mel Parental, 10μΜ", "setting": "501Mel cells (parental); 10μΜ, in %", "value": 100.2},
      {"measurement": "cell viability, IGR37 GP, 10μΜ", "setting": "[6]; 10μΜ", "value": 81.4, "unit": "%"},
      {"measurement": "cell viability, IGR37 GP, 1μΜ", "setting": "[6]; 1μΜ, in %", "value": 91.6}
    ]},
    {"compound": "O=C(Nc1ccc(OC(F)(F)F)cc1)c1sccc1NCc1ccnc2ccccc12", "note": "[OSI-930]", "values": [
      {"measurement": "cell viability (kinase inhibitor library screening)", "setting": "A375 cells (parental); 10μΜ", "value": 77.6, "unit": "%"},
      {"measurement": "cell viability (kinase inhibitor library screening)", "setting": "A375 cells (parental); 1μΜ", "value": 97.9, "unit": "%"},
      {"measurement": "cell viability (kinase inhibitor library screening)", "setting": "[1]; 1μΜ", "value": 92.9, "unit": "%"},
      {"measurement": "cell viability (kinase inhibitor library screening)", "setting": "[1]; 10μΜ", "value": 73.6, "unit": "%"},
      {"measurement": "cell viability (kinase inhibitor library screening)", "setting": "[2]; 1μΜ", "value": 86.8, "unit": "%"},
      {"measurement": "cell viability (kinase inhibitor library screening)", "setting": "[2]; 10μΜ", "value": 55.3, "unit": "%"},
      {"measurement": "cell viability (kinase inhibitor library screening)", "setting": "[3]; 1μΜ", "value": 100.2, "unit": "%"},
      {"measurement": "cell viability (kinase inhibitor library screening)", "setting": "[3]; 10μΜ", "value": 70.0, "unit": "%"},
      {"measurement": "cell viability (kinase inhibitor library screening)", "setting": "[4]; 1μΜ", "value": 93.4, "unit": "%"},
      {"measurement": "cell viability (kinase inhibitor library screening)", "setting": "[4]; 10μΜ", "value": 71.6, "unit": "%"},
      {"measurement": "cell viability (kinase inhibitor library screening)", "setting": "IGR37 cells (parental); 1μΜ", "value": 96.0, "unit": "%"},
      {"measurement": "cell viability (kinase inhibitor library screening)", "setting": "IGR37 cells (parental); 10μΜ", "value": 89.7, "unit": "%"},
      {"measurement": "cell viability (kinase inhibitor library screening)", "setting": "[5]; 1μΜ", "value": 96.5, "unit": "%"},
      {"measurement": "cell viability (kinase inhibitor library screening)", "setting": "[5]; 10μΜ", "value": 73.5, "unit": "%"},
      {"measurement": "cell viability (kinase inhibitor library screening)", "setting": "501Mel cells (parental); 1μΜ", "value": 100.2, "unit": "%"},
      {"measurement": "cell viability (kinase inhibitor library screening)", "setting": "501Mel cells (parental); 10μΜ", "value": 85.8, "unit": "%"},
      {"measurement": "cell viability (kinase inhibitor library screening)", "setting": "[6]; 1μΜ", "value": 88.5, "unit": "%"},
      {"measurement": "cell viability (kinase inhibitor library screening)", "setting": "[6]; 10μΜ", "value": 90.3, "unit": "%"}
    ]},
    {"compound": "NCC(=O)Nc1ccc(-n2nc(C(F)(F)F)cc2-c2ccc3c(ccc4ccccc43)c2)cc1", "note": "[OSU-03012]", "values": [
      {"measurement": "Cell viability in kinase inhibitor library screening, A375 Parental, 10μΜ", "setting": "A375 cells (parental); 10μΜ", "value": 0.756},
      {"measurement": "Cell viability in kinase inhibitor library screening, A375 Parental, 1μΜ", "setting": "A375 cells (parental); 1μΜ", "value": 91.6},
      {"measurement": "Cell viability in kinase inhibitor library screening, 501Mel XP, 1μΜ", "setting": "[1]; 1μΜ, in %", "value": 90.0},
      {"measurement": "Cell viability in kinase inhibitor library screening, 501Mel XP, 10μΜ", "setting": "[1]; 10μΜ, in %", "value": -0.352},
      {"measurement": "Cell viability in kinase inhibitor library screening, A375 GP, 1μΜ", "setting": "[2]; 1μΜ", "value": 89.7},
      {"measurement": "Cell viability in kinase inhibitor library screening, A375 GP, 10μΜ", "setting": "[2]; 10μΜ", "value": 0.547},
      {"measurement": "Cell viability in kinase inhibitor library screening, IGR37 XP, 10μΜ", "setting": "[3]; 10μΜ", "value": 1.4, "unit": "%"},
      {"measurement": "Cell viability in kinase inhibitor library screening, IGR37 XP, 1μΜ", "setting": "[3]; 1μΜ, in %", "value": 109.9},
      {"measurement": "Cell viability in kinase inhibitor library screening, A375 XP, 1μΜ", "setting": "[4]; 1μΜ", "value": 91.6},
      {"measurement": "Cell viability in kinase inhibitor library screening, A375 XP, 10μΜ", "setting": "[4]; 10μΜ", "value": 0.7},
      {"measurement": "Cell viability in kinase inhibitor library screening, IGR37 Parental, 10μΜ", "setting": "IGR37 cells (parental); 10μΜ, in %", "value": 0.5},
      {"measurement": "Cell viability in kinase inhibitor library screening, 501Mel GP, 1μΜ", "setting": "[5]; 1μΜ, in %", "value": 94.0},
      {"measurement": "Cell viability in kinase inhibitor library screening, 501Mel GP, 10μΜ", "setting": "[5]; 10μΜ, in %", "value": -0.274},
      {"measurement": "Cell viability in kinase inhibitor library screening, 501Mel Parental, 1μΜ", "setting": "501Mel cells (parental); 1μΜ, in %", "value": 91.0},
      {"measurement": "Cell viability in kinase inhibitor library screening, 501Mel Parental, 10μΜ", "setting": "501Mel cells (parental); 10μΜ, in %", "value": 0.3},
      {"measurement": "Cell viability in kinase inhibitor library screening, IGR37 GP, 10μΜ", "setting": "[6]; 10μΜ", "value": 2.3, "unit": "%"},
      {"measurement": "Cell viability in kinase inhibitor library screening, IGR37 GP, 1μΜ", "setting": "[6]; 1μΜ, in %", "value": 99.0}
    ]}
  ]
}
